US20250025438A1, “Derivative of aspartic acid and use thereof in treatment of metabolic diseases such as hepatic fibrosis and non-alcoholic hepatitis” (SHENZHEN JINGTAI TECHNOLOGY CO., LTD., priority 2021, published 2025)
Where a name gives a salt, the structure may show the parent alone. Where a SMILES comes first, the peptide text is derived from it.

Assays:
Assay type in all cases: cell-based
IL-1β = assay: In vitro efficacy in semi-activated LX2 cells, qPCR: IL-1β; conditions: 48 hours, Q-PCR
Procedure: (§1) Test compounds were added to the LX-2 cells respectively, and total RNA in the cells was extracted 48 hours later. This experiment was performed strictly in accordance with the instructions of the Total RNA Kit. The steps were as follows (note: this experiment was performed on ice throughout the entire process, and special RNase-free tips were used throughout the entire process): • 1) The 12-well cell culture plate was taken out from the incubator, the cell culture medium was discarded, the cells were washed twice with 1 mL of 1×PBS, and a negative pressure suction device was used to fully remove PBS; • 2) 350 μL of TRK Lysis Buffer mixture/well was prepared as needed (mixture preparation method: 1 mL of TRKLysis Buffer+20 μL of β-mercaptoethanol), vortexed and mixed well. 350 μL was added to each well of the 12-well cell culture plate, and allowed to stand at room temperature for 5 minutes to fully lyse the cells; • 3) 70% ethanol/well was prepared as needed, vortexed and mixed well. 350 μL was added to each well of the 12-well cell culture plate, mixed well by shaking, and transferred to the spin column (spin column+collection tube were assembled); • 4) Centrifugation was performed at 4° C., 12000 g for 60 sec. The waste liquid was discarded after centrifugation, while the spin column was kept; • 5) 500 μL of RNA Wash Buffer I was added, centrifuged at 4° C., 12000 g for 60 sec, the waste liquid was discarded after centrifugation, and the collection column was kept; • 6) 500 μL of RNA Wash Buffer II (confirmed that ethanol had been added) was added, centrifuged at 4° C., 12000 g for 60 sec, the waste liquid was discarded after centrifugation, and the collection column was kept; • 7) step 6) was repeated once again, centrifugation was performed at 4° C., 12000 g for 90 sec, the waste liquid was discarded after centrifugation, and the collection column was kept; • 8) Centrifugation was performed at 4° C., 12000 g for 120 sec to ensure that the spin column was fully dried; • 9) The dried spin column was inserted into a new 1.5 mL EP tube, and 30 μL of DEPC water was added to the membrane in the center of the spin column. It should be careful not to touch the EP tube cover in this step. It was allowed to stand at room temperature for 5 minutes to ensure that the RNA was fully dissolved in DEPC water. Centrifugation was performed at 4° C., 12000 g for 60 sec, and the EP tube was kept; • 10) NanoDrop ultra-micro-volume spectrophotometer was used to detect RNA concentration;
(§2) 5.2 Reverse transcription of RNA into cDNA: According to the instructions of PrimeScript™ RT reagent Kit (Perfect Real Time), the specific experimental steps were as follows:
(§3) 5.3 Q-PCR detection of target gene expression: According to the instructions of Power SYBR® Green PCR Master Mix, the specific operations were as follows:
(§4) After the reaction was completed, the amplification curve and dissolution curve of Q-PCR were confirmed, and the relative quantification method ([…]) was used to perform data analysis on the experimental results.
(§5) LX2 cells were passaged and plated normally. […] After 48 hours, the cells were collected, total RNA was extracted, and Q-PCR was used to detect the changes in the mRNA expression levels of liver fibrosis-related genes (ACTA2 encoding α-SMA, COL1A1 and COLIA2 encoding collagen I, COL3A1 encoding collagen III, SMAD3 encoding Smad3) and inflammation-related genes (IL1β encoding IL-1β, TNFα encoding TNFα) (for specific methods, see 5. Q-PCR detection of target gene expression as described above). α-SMA was a marker of hepatic stellate cell activation, and collagen I and collagen III were the main components of extracellular matrix deposition.

COL1A1 = assay: In vitro efficacy in semi-activated LX2 cells, qPCR: COL1A1; conditions: 48 hours, Q-PCR; for inhibition at 50 µM: LX-2, 50 µM; for inhibition at 12.5 µM: LX-2, test concentration 12.5 μM; for inhibition at 100 µM: LX-2, test concentration 100 μM
Procedure: as §1, §2, §3, §4, §5

COL3A1 = assay: In vitro efficacy in semi-activated LX2 cells, qPCR: COL3A1; conditions: 48 hours, Q-PCR; for inhibition at 50 µM: LX-2, 50 µM; for inhibition at 12.5 µM: LX-2, test concentration 12.5 μM; for inhibition at 100 µM: LX-2, test concentration 100 μM
Procedure: as §1, §2, §3, §4, §5

Smad3 = assay: In vitro efficacy in semi-activated LX2 cells, qPCR: Smad3; conditions: 48 hours, Q-PCR; for inhibition at 50 µM: LX-2, 50 µM
Procedure: as §1, §2, §3, §4, §5

α-SMA = assay: In vitro efficacy in semi-activated LX2 cells, qPCR: α-SMA; conditions: 48 hours, Q-PCR; for inhibition at 50 µM / inhibition at 12.5 µM / inhibition at 100 µM: read-out: α-SMA mRNA inhibition rate; for inhibition of the expression of α-SMA at the mRNA level: Table 2; for inhibition at 100 µM: test concentration 100 μM
Procedure: as §1, §2, §3, §4, §5

[1] = test system: collagen I and collagen III; assay: Semi-activated LX2 cells, qPCR: collagen I and collagen III at the mRNA level; conditions: 48 hours, Q-PCR, Table 2
Procedure: as §1, §3
LX2 cells were passaged and plated normally. After adherent growth for 12 hours, 50 µM of the test compound was added. After 48 hours, the cells were collected, total RNA was extracted, and Q-PCR was used to detect the changes in the mRNA expression levels of liver fibrosis-related genes (ACTA2 encoding α-SMA, COL1A1 and COLIA2 encoding collagen I, COL3A1 encoding collagen III, SMAD3 encoding Smad3) and inflammation-related genes (IL1β encoding IL-1β, TNFα encoding TNFα) (for specific methods, see 5. Q-PCR detection of target gene expression as described above). α-SMA was a marker of hepatic stellate cell activation, and collagen I and collagen III were the main components of extracellular matrix deposition. […]

[2] = Homo sapiens, read-out: COL1A1 mRNA inhibition rate
[3] = Homo sapiens, read-out: COL3A1 mRNA inhibition rate
[4] = Homo sapiens, read-out: Smad3 mRNA inhibition rate

COC(=O)[C@H](CC(=O)O)NC(=O)OCC1c2ccccc2-c2ccccc21 [Compound 5]
inhibition at 50 µM (IL-1β; Homo sapiens, LX-2, 50 µM, read-out: IL-1β mRNA inhibition rate): 1 to 10%

COC(=O)C[C@H](N)C(=O)OC.Cl [Compound 7]
IL-1β mRNA inhibition rate (IL-1β; test concentration 25 μM): E (E represented that the inhibition rate was 1% to 10%)

N[C@@H](CC(=O)O)C(=O)OCc1ccccc1 [Compound 20]
COL1A1 mRNA inhibition rate (COL1A1; test concentration 12.5 μM): E (E represented that the inhibition rate was 1% to 10%) | COL3A1 mRNA inhibition rate (COL3A1; test concentration 12.5 μM): E (E represented that the inhibition rate was 1% to 10%) | Smad3 mRNA inhibition rate (Smad3; test concentration 12.5 μM): E (E represented that the inhibition rate was 1% to 10%) | α-SMA mRNA inhibition rate (α-SMA; test concentration 12.5 μM): E (E represented that the inhibition rate was 1% to 10%)

CC(C)(C)OC(=O)N[C@@H](CC(=O)O)C(=O)OCc1ccccc1 [Compound 21]
inhibition at 50 µM (COL1A1; [2]): 1 to 10% | inhibition of the expression of collagen I and collagen III at the mRNA level [1]: could inhibit | inhibition at 50 µM (COL3A1; [3]): 10 to 25% | inhibition at 50 µM (Smad3; [4]): 1 to 10% | inhibition at 50 µM (α-SMA): 1 to 10%

CC(C)(C)OC(=O)N[C@@H](CC(=O)OCc1ccccc1)C(=O)O [Compound 24]
inhibition at 50 µM (COL1A1; [2]): 1 to 10% | inhibition at 50 µM (COL3A1; [3]): 1 to 10%

COC(=O)[C@H](CC(=O)O)NC(=O)OCc1ccccc1 [Compound 25]
inhibition at 50 µM (COL1A1; [2]): 1 to 10% | inhibition at 50 µM (α-SMA): 1 to 10%

N[C@@H](CC(=O)NC(c1ccccc1)(c1ccccc1)c1ccccc1)C(=O)O [Compound 27]
inhibition at 50 µM (Smad3; [4]): 1 to 10%

COC(=O)[C@H](Cc1ccccc1)NC(=O)C[C@H](N)C(=O)O [Compound 32]
inhibition at 50 µM (COL1A1; [2]): 10 to 25% | inhibition at 50 µM (COL3A1; [3]): 1 to 10% | inhibition at 50 µM (α-SMA): 1 to 10%

CCOC(=O)C[C@H](N)C(=O)O [Compound 35, 4-ethyl L-aspartic acid ester]
inhibition at 50 µM (COL1A1; [2]): 10 to 25% | inhibition of the expression of collagen I and collagen III at the mRNA level [1]: could inhibit | inhibition at 50 µM (COL3A1; [3]): 1 to 10%

C[C@@H](NC(=O)[C@@H](N)CC(=O)O)C(=O)NC1C(C)(C)SC1(C)C [Compound 38]
inhibition at 50 µM (COL1A1; [2]): 25 to 50% | inhibition of the expression of collagen I and collagen III at the mRNA level [1]: could inhibit | inhibition at 50 µM (COL3A1; [3]): 1 to 10%

N[C@H](C(=O)O)[C@@H](N)C(=O)O [Compound 43]
inhibition at 50 µM (COL3A1; [3]): 1 to 10% | inhibition at 50 µM (Smad3; [4]): 1 to 10% | inhibition at 50 µM (α-SMA): 1 to 10%

CC(C)OC(=O)OCOC(=O)[C@@H](N)CC(=O)O [Compound 51, 1-(((isopropoxycarbonyl)oxy)methyl) L-aspartic acid ester hydrochloride]
inhibition at 50 µM (α-SMA): 1 to 10%

N[C@@H](CC(=O)O)C(=O)OCOC(=O)[C@@H](N)CC(=O)O [Compound 57, (3S,3'S)-4,4′-(methylenebis (oxy))bis (3-amino-4-oxobutyric acid) hydrochloride]
inhibition at 25 µM (Smad3; Homo sapiens, LX-2, test concentration 25 μM, read-out: Smad3 mRNA inhibition rate): 1 to 10%

O=C(O)C[C@H](NC(=O)C1CC1)C(=O)O [Compound 60, (cyclopropylcarbonyl)-L-aspartic acid]
inhibition at 50 µM (Smad3; [4]): 1 to 10% | inhibition at 50 µM (α-SMA): 1 to 10%

COC(=O)C[C@H](NC(C)=O)C(=O)O [Compound 63, 4-methyl acetyl-L-aspartic acid ester]
inhibition of the expression of collagen I and collagen III at the mRNA level [1]: could inhibit | inhibition at 50 µM (COL3A1; [3]): 10 to 25% | inhibition at 50 µM (α-SMA): 1 to 10%

COC(=O)[C@H](CC(=O)O)NC(C)=O [Compound 65, 1-methyl acetyl-L-aspartic acid ester]
inhibition at 12.5 µM (COL1A1; [2]): 10 to 25% | inhibition at 12.5 µM (COL3A1; [3]): 1 to 10% | inhibition at 12.5 µM (α-SMA; test concentration 12.5 μM): 1 to 10%

CCC(=O)N[C@@H](CC(=O)O)C(=O)OC [Compound 66, 1-methyl propionyl-L-aspartic acid ester]
inhibition at 50 µM (COL1A1; [2]): 25 to 50% | inhibition of the expression of collagen I and collagen III at the mRNA level [1]: could inhibit

COC(=O)C[C@H](NC(=O)[C@H](C)N)C(=O)O [Compound 67, (S)-2-((S)-2-aminopropionamido)-4-methoxy-4-oxobutyric acid hydrochloride] (HELM PEPTIDE1{A.D}|CHEM1{[CO[*:1]]}$PEPTIDE1,CHEM1,2:R3-1:R1$$$V2.0)
inhibition at 50 µM (COL3A1; [3]): 1 to 10%

COC(=O)C[C@H](N)C(=O)OC(C)OC(=O)[C@@H](N)CC(=O)OC [Compound 68, O′1,O1-(ethan-1,1-diyl)4-dimethyl (2S,2'S)-bis (2-aminosuccinate) hydrochloride]
inhibition at 100 µM (COL1A1; [2]): 1 to 10% | inhibition at 100 µM (COL3A1; [3]): 1 to 10% | inhibition of the expression of α-SMA at the mRNA level (α-SMA): could inhibit | inhibition at 100 µM (α-SMA): 25 to 50%

CCOC(=O)C[C@H](N)C(=O)OCOC(=O)[C@@H](N)CC(=O)OC [Compound 70, 1-((((S)-2-amino-4-ethoxy-4-oxobutyryl)oxy)methyl) 4-methyl L-aspartic acid ester hydrochloride]
inhibition at 100 µM (COL1A1; [2]): 1 to 10% | inhibition of the expression of collagen I and collagen III at the mRNA level [1]: could inhibit | inhibition at 100 µM (COL3A1; [3]): 10 to 25% | inhibition of the expression of α-SMA at the mRNA level (α-SMA): could inhibit | inhibition at 100 µM (α-SMA): 50 to 75%

COC(=O)C[C@H](N)C(=O)OCOC(=O)[C@@H](N)CC(=O)OC(C)C [Compound 71, 1-((((S)-2-amino-4-isopropoxy-4-oxobutyryl)oxy)methyl) 4-methyl L-aspartic acid ester hydrochloride]
inhibition at 12.5 µM (COL1A1; [2]): 10 to 25% | inhibition of the expression of collagen I and collagen III at the mRNA level [1]: could inhibit | inhibition at 12.5 µM (COL3A1; [3]): 1 to 10%

CCOC(=O)C[C@H](N)C(=O)OCOC(=O)[C@@H](N)CC(=O)OCC [Compound 72, hydrochloride]
inhibition at 25 µM (COL1A1; Homo sapiens, LX-2, test concentration 25 μM, read-out: COL1A1 mRNA inhibition rate): 25 to 50% | inhibition of the expression of collagen I and collagen III at the mRNA level [1]: could inhibit | inhibition at 25 µM (COL3A1; Homo sapiens, LX-2, test concentration 25 μM, read-out: COL3A1 mRNA inhibition rate): 25 to 50%

CC(C)OC(=O)C[C@H](N)C(=O)OCOC(=O)[C@@H](N)CC(=O)OC(C)C [Compound 73, 4-diisopropyl O′1,O1-methylene (2S,2'S)-bis (2-aminosuccinate) hydrochloride]
inhibition of the expression of α-SMA at the mRNA level (α-SMA): could inhibit | inhibition at 12.5 µM (α-SMA; test concentration 12.5 μM): 10 to 25%

COC(=O)C[C@H](N)C(=O)OCOC(=O)C[C@H](N)C(=O)OC.Cl [Compound 74, 4-((((S)-2-amino-4-methoxy-4-oxobutyryl)oxy)methyl)1-methyl L-aspartic acid ester hydrochloride]
inhibition at 100 µM (COL1A1; [2]): 25 to 50% | inhibition of the expression of collagen I and collagen III at the mRNA level [1]: could inhibit | inhibition at 100 µM (COL3A1; [3]): 25 to 50% | inhibition at 100 µM (α-SMA): 25 to 50%
